Laboratory results as given in patent US9242970B2 (ACTELION PHARMACEUTICALS LTD., priority 2010, dated 2016).
pIC50: −log10 of the molar value.

Legend:
rat [1] = settings: cited from earlier work
rat [2] = settings: rat model; cited from earlier work
rat [3] = settings: cited from earlier work; remark: listed apart in the source
human orexin-1 receptor = human orexin-1 receptor (Homo sapiens (Human), UniProt O43613); assay: In vitro assay: intracellular calcium measurements (FLIPR), antagonistic activity; assay type: cell-based; settings: CHO cells, 3 nM orexin-A, compound incubation 120 min; marked values are geometric means of n = 2-6; read-out: IC50 OX1
human orexin-1 receptor, sequence (O43613 whole entry): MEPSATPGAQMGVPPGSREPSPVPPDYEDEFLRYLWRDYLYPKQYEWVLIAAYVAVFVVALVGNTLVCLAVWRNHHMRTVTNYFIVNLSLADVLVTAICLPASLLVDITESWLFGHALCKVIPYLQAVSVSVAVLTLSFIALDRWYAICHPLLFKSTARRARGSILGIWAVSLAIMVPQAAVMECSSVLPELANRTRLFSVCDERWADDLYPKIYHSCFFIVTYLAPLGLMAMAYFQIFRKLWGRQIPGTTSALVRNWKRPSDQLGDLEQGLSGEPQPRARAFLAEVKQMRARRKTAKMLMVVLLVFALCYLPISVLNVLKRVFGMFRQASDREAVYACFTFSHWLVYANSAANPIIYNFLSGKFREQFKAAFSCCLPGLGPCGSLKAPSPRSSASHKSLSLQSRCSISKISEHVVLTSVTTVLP

human orexin-2 receptor = human orexin-2 receptor (Homo sapiens (Human), UniProt O43614); assay: as above; assay type: cell-based; settings: CHO cells, 3 nM orexin-A, compound incubation 120 min; marked values are geometric means of n = 2-6; read-out: IC50 OX2
human orexin-2 receptor, sequence (O43614 whole entry): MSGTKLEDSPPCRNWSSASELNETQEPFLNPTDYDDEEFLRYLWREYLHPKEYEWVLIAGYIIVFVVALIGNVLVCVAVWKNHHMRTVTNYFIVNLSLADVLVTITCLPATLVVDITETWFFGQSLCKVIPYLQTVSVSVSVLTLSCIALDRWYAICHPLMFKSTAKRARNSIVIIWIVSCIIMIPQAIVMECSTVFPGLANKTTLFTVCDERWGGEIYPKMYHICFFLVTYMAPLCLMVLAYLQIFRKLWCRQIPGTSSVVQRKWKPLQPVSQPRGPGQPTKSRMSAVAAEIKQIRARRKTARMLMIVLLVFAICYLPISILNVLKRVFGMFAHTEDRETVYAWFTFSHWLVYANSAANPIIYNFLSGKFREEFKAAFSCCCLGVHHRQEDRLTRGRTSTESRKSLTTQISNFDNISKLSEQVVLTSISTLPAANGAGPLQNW

Compound	pIC50 (human orexin-1 receptor)	pIC50 (human orexin-2 receptor)	also measured
CNC(=O)[C@@H](c1ccccc1)N1CCc2cc(OC)c(OC)cc2[C@@H]1CCc1ccc(C(F)(F)F)cc1 [(2R)-2-{(1S)-6,7-dimethoxy-1-[2-(4-trifluoromethyl-phenyl)-ethyl]-3,4-dihydro-1H-isoquinolin-2-yl}-N-methyl-2-phenyl-acetamide]	–	–	activity in post-traumatic stress disorder model (rat [1]): active; memory function (rat [2]): enhance memory function; alertness (active wake and locomotion) (rat [3]): decrease alertness; time spent in REM and NREM sleep (rat [3]): dose-dependently increase the time spent in both REM and NREM sleep
COc1cccc(OC)c1C1CC(C)C(=O)N1Cc1ccc2sc3ccccc3c2c1 (stereo not drawn) [Example 426, 1-(dibenzo[b,d]thiophen-2-ylmethyl)-5-(2,6-dimethoxyphenyl)-3-methylpyrrolidin-2-one]	8.22	8.10	–
COc1ccc2nc(C)oc2c1C1CCCC(=O)N1Cc1cccc(-c2ccccc2)c1 (stereo not drawn) [Example 440, 1-([1,1′-biphenyl]-3-ylmethyl)-6-(6-methoxy-2-methylbenzo[d]oxazol-7-yl)piperidin-2-one]	7.34	7.04	–
COc1ccc2nc(C)oc2c1C1CCCC(=O)N1Cc1cccc(-c2csc(C)n2)c1 (stereo not drawn) [Example 441, 6-(6-methoxy-2-methylbenzo[d]oxazol-7-yl)-1-(3-(2-methylthiazol-4-yl)benzyl)piperidin-2-one]	7.80	7.21	–
CCc1nc2ccc(OC)c(C3CCCC(=O)N3Cc3cccc(-c4csc(C)n4)c3)c2o1 (stereo not drawn) [Example 442, 6-(2-ethyl-6-methoxybenzo[d]oxazol-7-yl)-1-(3-(2-methylthiazol-4-yl)benzyl)piperidin-2-one]	8.00	7.48	–
COc1ccc2c(c1C1CCCC(=O)N1Cc1cccc(-c3csc(C)n3)c1)OCCO2 (stereo not drawn) [Example 443, 6-(6-methoxy-2,3-dihydrobenzo[b][1,4]dioxin-5-yl)-1-(3-(2-methylthiazol-4-yl)benzyl)piperidin-2-one]	8.30	7.89	–
COc1ccc2c(c1C1CCCC(=O)N1Cc1cccc(-c3ncc(C)s3)c1)OCCO2 (stereo not drawn) [Example 444, 6-(6-methoxy-2,3-dihydrobenzo[b][1,4]dioxin-5-yl)-1-(3-(5-methylthiazol-2-yl)benzyl)piperidin-2-one]	8.15	8.10	–
COc1ccc2ccccc2c1C1CCCC(=O)N1Cc1cccc(-c2ncccn2)c1 (stereo not drawn) [Example 445, 6-(2-methoxynaphthalen-1-yl)-1-(3-(pyrimidin-2-yl)benzyl)piperidin-2-one]	7.68	7.05	–
COc1ccc2ccccc2c1C1CCCC(=O)N1Cc1cccc(-c2ncc(C)s2)c1 (stereo not drawn) [Example 446, 6-(2-methoxynaphthalen-1-yl)-1-(3-(5-methylthiazol-2-yl)benzyl)piperidin-2-one]	7.92	7.23	–
COc1ccc2ccccc2c1C1CCCC(=O)N1Cc1cccc(Oc2ccccc2)c1 (stereo not drawn) [Example 447, 6-(2-methoxynaphthalen-1-yl)-1-(3-phenoxybenzyl)piperidin-2-one]	6.95	7.04	–
COc1ccc2c(c1C1CCCC(=O)N1Cc1cccc(-c3csc(C)n3)c1)OCO2 (stereo not drawn) [Example 448, 6-(5-methoxybenzo[d][1,3]dioxol-4-yl)-1-(3-(2-methylthiazol-4-yl)benzyl)piperidin-2-one]	7.77	7.96	–
COc1ccc2c(c1C1CCCC(=O)N1Cc1ccc(OC(F)(F)F)cc1)OCO2 (stereo not drawn) [Example 449, 6-(5-methoxybenzo[d][1,3]dioxol-4-yl)-1-(4-(trifluoromethoxy)benzyl)piperidin-2-one]	6.45	7.64	–
O=C1CCCCC(c2ccccc2-c2ccncc2)N1Cc1cccc(-c2nccs2)c1 (stereo not drawn) [Example 450, 7-(2-(pyridin-4-yl)phenyl)-1-(3-(thiazol-2-yl)benzyl)azepan-2-one]	6.25	7.82	–
O=C1CCCCC(c2ccccc2-c2cncs2)N1Cc1cccc(-c2nccs2)c1 (stereo not drawn) [Example 451, 1-(3-(thiazol-2-yl)benzyl)-7-(2-(thiazol-5-yl)phenyl)azepan-2-one]	6.37	7.72	–
O=C1CCCCC(c2ccccc2-c2cscn2)N1Cc1cccc(-c2nccs2)c1 (stereo not drawn) [Example 452, 1-(3-(thiazol-2-yl)benzyl)-7-(2-(thiazol-4-yl)phenyl)azepan-2-one]	6.98	7.82	–
O=C1CCCCC(c2ccccc2-c2cccnc2)N1Cc1cccc(-c2nccs2)c1 (stereo not drawn) [Example 453, 7-(2-(pyridin-3-yl)phenyl)-1-(3-(thiazol-2-yl)benzyl)azepan-2-one]	6.42	7.03	–
O=C1CCCCC(c2ccccc2-c2ccccc2)N1Cc1cccc(-c2nccs2)c1 (stereo not drawn) [Example 454, 7-([1,1′-biphenyl]-2-yl)-1-(3-(thiazol-2-yl)benzyl)azepan-2-one]	6.74	7.11	–
COc1ccc2ncoc2c1C1CCCC(=O)N1Cc1cccc(-c2csc(C)n2)c1 (stereo not drawn) [Example 455, 6-(6-methoxybenzo[d]oxazol-7-yl)-1-(3-(2-methylthiazol-4-yl)benzyl)piperidin-2-one]	7.24	6.99	–
O=C1CCCC(c2ccnn2-c2ccccc2)N1Cc1cccc(-c2ccccc2)c1 (stereo not drawn) [Example 456, 1-([1,1′-biphenyl]-3-ylmethyl)-6-(1-phenyl-1H-pyrazol-5-yl)piperidin-2-one]	6.18	6.15	–
COc1ccc2c(c1C1CCCC(=O)N1Cc1cccc(-c3ccccc3)c1)OCO2 (stereo not drawn) [Example 457, 1-([1,1′-biphenyl]-3-ylmethyl)-6-(5-methoxybenzo[d][1,3]dioxol-4-yl)piperidin-2-one]	7.23	7.52	–
COc1ccc2c(c1C1CCCC(=O)N1Cc1cccc(Oc3ccccc3)c1)OCO2 (stereo not drawn) [Example 458, 6-(5-methoxybenzo[d][1,3]dioxol-4-yl)-1-(3-phenoxybenzyl)piperidin-2-one]	6.85	7.85	–
COc1ccc2c(c1C1CCCC(=O)N1Cc1csc(-c3ccccc3)n1)OCO2 (stereo not drawn) [Example 459, 6-(5-methoxybenzo[d][1,3]dioxol-4-yl)-1-((2-phenylthiazol-4-yl)methyl)piperidin-2-one]	6.97	7.40	–
rac-(3R*,5S*)-(3-chloro-4-(trifluoromethoxy)benzyl)-5-(2-ethoxy-6-fluorophenyl)-3-hydroxypyrrolidin-2-one [Example 429]	5.94	7.82	–
